Reference: patent publication US12016834B2, “Small molecule inhibitors of SLC25A1” (GEORGETOWN UNIVERSITY, priority 2017, dated 2024)

Experiments:
Format in all cases: cell-based, human
H1299 cells [1] = experiment: Sphere forming / self-renewal assay
Experimental: Growth of monolayers and sphere cultures. Tumor cell lines were grown as monolayers in complete Dulbecco's Modified Eagle's Media (DMEM, Gibco; supplemented with 10% fetal bovine serum and 1% of 5,000 units/mL of penicillin-streptomycin (pen-strep), Gibco). To generate spheroids, cells were grown in Falcon bacteriological petri dishes coated with 2% poly(2-hydroxyethyl methacrylate) dissolved in 100% ethanol. The growth media was DMEM/F12 (Gibco) supplemented with 20 ng/mL of epidermal growth factor (EGF), 5 ng/mL of fibroblast growth factor, 0.375% 100× N2 supplements (Gibco), and 1% pen-strep. Monolayer cells were dissociated using 0.25% trypsin-edta (Gibco), whereas spheroid cultures were dissociated using StemPro Accutase (Gibco). Patient derived cell lines were grown as described below in the primary lung cultures section.
Self-renewal assays. Tumor cells cultured as spheroids were dissociated and diluted in 2× sphere media containing 1% methyl cellulose, which was previously dissolved in cold DMEM/F12 media. Either 200, 500, or 1000 cells were then plated in each 96 well and were incubated in the presence or absence of drugs, as indicated. The spheres were allowed to form for a period of a week to ten days, at which point they were counted. Six biological replicates were used for quantification of the results.

H1299 cells [2] = experiment: Seahorse oxygen consumption rate (mitochondrial stress test)
Experimental: Seahorse extracellular flux analyzer experiments. Cells derived from spheres or monolayer cultures were dissociated and plated overnight at 12,000 cells/well in DMEM with 10% FBS, 5 mM glucose, 1 mM pyruvate, 2 mM glutamine.
For the mitochondrial stress test, the media was replaced with DMEM without FBS or bicarbonate, containing 5 mM glucose, 1 mM pyruvate, 2 mM glutamine and placed in a CO2 free incubator at 37° C. for 1 hour, and then transferred to the Xf96 extracellular flux analyzer (Agilent; Santa Clara, CA). The program consisted of 3 measurements of OCR/ECAR before the injection of each drug: oligomycin (0.5 μM final concentration), FCCP (2 μM) and rotenone/antimycin (0.5 μM of each). […] There were 3 measurements of OCR/ECAR before each injection: glucose (10 mM final concentration), oligomycin (0.5 […] (50 mM). For the analysis of glutamine oxidation, the protocol was the same as the glucose stress test, but with glutamine being the only compound injected (final concentration 4 mM) and OCR/ECAR measured for 60 minutes. When spheres were analyzed, they were dissociated with StemPro® Accutase® (Thermo Scientific; Waltham, MA) and plated under the same conditions as above as for the monolayers the day before the assay (H1299 spheres), or in stem cell media (See Stem Cell Media) with the wells coated in 15 μL of 2% geltrex diluted in DMEM:F12 (Thermo Scientific). […]

H1299 cells [3] = experiment: Citrate levels in mitochondrial or cytoplasmic fractions; settings: 4 hours
Experimental: Cells, reagents, antibodies, primers. The H1299 cell lines and other cell lines employed in this study were obtained from ATCC or from the tissue culture core facility at LCCC. Cells were grown in Dulbecco's Modified Eagle's Medium (DMEM, 25 mM glucose, with glutamine and pyruvate from Invitrogen; Carlsbad, CA) and supplemented with 10% fetal calf serum (FCS). […] The SLC25A1 specific shRNA vectors were purchased from Sigma. The vector expressing human SLC25A1 untagged or Flag-Myc epitope tagged were from Origene; Rockville, MD (#SC120727 and RC200657, respectively). The anti-SLC25A1 antibody used in immuno-blot was from Santa Cruz Biotech, #sc-86392 employed at 1:1000 dilution. Citrate, lactate, and PFK measurements were performed by using commercially available kits (Biovision (Milpitas, CA)).
Mitochondria isolation and cellular sub-fractionation. Mitochondria and cytoplasmic fractions were prepared as follows. Cells were collected in PBS for 5′, then the pellet was e-suspended in 5 packed cell volumes of mitochondria buffer (250 mM sucrose; 20 mM HEPES (7.4); 10 mM KCl, 1.5 mM MgCl2; 1 mM EDTA; 1 mM EGTA 0.5 M, supplemented with freshly added PMSF and 1 mM […]). Cell lysates were passed through a 25 G needle 10 times, then 5 times through a 27 G needle, followed by incubation on ice for 10-15 minutes. Extracts were centrifuged at 720 G for 5 minutes. The supernatant was centrifuged again at 10000 G and the derived pellet provided the mitochondrial fraction and the supernatant provided the cytoplasmic fraction. To extract the mitochondria for measurement of citrate, the pellet from the previous centrifugation was resuspended in PBS and subjected to 3 cycles of freeze-and-thaw in dry ice immersed in ethanol. The fraction was centrifuged again and re-suspended in PBS. The supernatant (containing cytosolic and membrane fractions) was centrifuged multiple times to eliminate particulate material, and was used as the cytosolic fraction.

MP1 cells = experiment: Viability (Crystal Violet) and drug interaction (R index)
Experimental: (§1) Cellular proliferation and cytotoxicity assays. […] The cells were then washed with 1×PBS and fixed with cold 100% methanol at−20° C. for 20 minutes. Methanol was washed off and the cells were stained with 0.5% crystal violet dissolved in 25% methanol and water at 4° C. for 20 minutes. The staining was washed off using deionized (DI) water and the plate was dried overnight. On the second day, 100 mM sodium citrate in 50% ethanol and 50% water was added to the wells and absorbance at 550 nm was measured and corrected with readings at 405 nm. In other experiments, cell viability was assessed by trypan blue exclusion and visual count of the live cells was performed.
(§2) Statistical methods for drug interactions. […] Sexp/Sobs=1.0 denotes an additive interaction, while >1.0 denotes a synergistic interaction. R index values approaching 2.0 are indicative of strong synergy.

MP2 cells = experiment: as above; settings: CTPI-2 with either cisplatin or AZD9291, 5 days
Experimental: as §1, §2

MP3 cells = experiment: as above; settings: CTPI-2 with either cisplatin or AZD9291, 5 days
Experimental: as §1, §2

O=C(O)c1ccccc1NS(=O)(=O)c1ccc(Cl)c([N+](=O)[O-])c1 [CTPI-2]
sphere forming capacity, compared with CTPI-1 (H1299 cells [1]; FIG. 2E): inhibited sphere forming capacity more efficiently than CTPI-1 | activity in spheres versus 2D/monolayer cultures (H1299 cells [1]; sphere forming assay compared with monolayer): significantly more prominent in spheres than in 2D cultures | respiratory activity of cells expressing the SLC25A1 shRNA (H1299 cells [2]; SLC25A1 shRNA cells): failed to affect the respiratory activity | respiratory capacity (OCR) (H1299 cells [2]; treated for three hours, spheres and monolayers): inhibited respiratory capacity in a dose-dependent fashion | cytoplasmic citrate (H1299 cells [3]; 2D cultures): reduction of cytoplasmic citrate | mitochondrial citrate (H1299 cells [3]; 2D cultures): induced accumulation of mitochondrial citrate | cytosolic citrate (H1299 cells [3]; spheres): without affecting the cytosolic citrate | mitochondrial citrate (H1299 cells [3]; spheres): starkly decreased mitochondrial citrate | re-sensitization, type of drug interaction (R index) (MP1 cells; CTPI-2 with either cisplatin or AZD9291, 5 days): starkly synergistic | sensitivity of a single cisplatin-resistant clone (MP1 cells; co-treatment with cisplatin (FIG. 15D)): re-sensitized to cisplatin | re-sensitization, type of drug interaction (R index) (MP2 cells): starkly synergistic | re-sensitization, type of drug interaction (R index) (MP3 cells): starkly synergistic
